{"source": "patent US20150352075A1", "about": "“Treatment of Alzheimer's and Cognitive Impairment With Andrographolides” (INNOBIOSCIENCE, LLC, priority 2013, published 2015)", "key": {"HEK293T cells": {"tested_on": "HEK293T cells", "assay": "TOPflash/FOPflash luciferase reporter assay", "format": "cell-based", "description": "150,000 HEK293T cells were seeded in triplicate per condition and kept for 24 hours at 37° C. with 5% CO2. The cultures were transfected with TOPflash or FOPflash (400 ng), which are firefly-luciferase reporter DNA constructs (Milipore), using LipofectAMINE 2000 (Invitrogen). To control for transfection pRL-TK (10 ng) was included in all transfections. […] Values were normalized by the renilla value from the same well. To statistically compare treatments ANOVA was used."}, "GSK-3β": {"tested_on": "GSK-3β", "assay": "Immunoblot of GSK-3β phosphorylation state and β-catenin in Wt hippocampal slices", "format": "cell-based, mice", "description": "The hippocampus and cortex of treated or control transgenic mice were dissected on ice and immediately processed has detailed previously (Toledo & Inestrosa 2010). Briefly, hippocampal and cortical tissues were homogenized in RIPA buffer (10 mM Tris-Cl, pH 7.4, EDTA 5 mM, 1% NP-40, 1% sodium deoxycholate, and 1% SDS) supplemented with a protease inhibitor mixture and phosphatase inhibitors (25 mMNaF, 100 mM Na3VO4 and 30 μM Na4P2O7) using a Potter homogenizator and then passed sequentially through different caliber syringes. Protein samples were centrifuged at 14000 rpm at 4° C. twice for 15 min Protein concentrations were determined using the BCA Protein Assay Kit (Pierce). Samples were resolved by SDS-PAGE followed by immunoblotting on PVDF membranes. Western blot assays were carried out as previously described (Inestrosa et al 2013; Toledo & Inestrosa 2010).\nHippocampal slices were prepared according to standard procedures previously described (Cerpa et al 2010; VarelaNallar et al 2010). Briefly, transverse slices (350 μm) from the dorsal hippocampus were cut under cold artificial cerebrospinal fluid (ACSF, in mM: 124 NaCl, […], 10 D-glucose, 2.69 KCl, 1.25 KH2PO4 2.5 CaCl2, 1.3 MgSO4, y 2.60 NaHPO4) using a V ibratome (Leica VT 1000s, Germany) and incubated in ACSF for 1 h at room temperature. In all experiments, 10 μM picrotoxin (PTX) was added to suppress inhibitory GABAA transmission (Cuitino et al 2010). Slices were transferred to an experimental chamber (2 ml), superfused (3 ml/min, at 20-22° C.) with gassed ACSF and visualized by trans-illumination with a binocular microscope (MSZ-10, Nikon, Melville, N.Y.). […] The paired pulse facilitation index was calculated by ((R2−R1)/R1), where R1 and R2 were the peak amplitudes of the first and second fEPSP respectively. […] Evoked postsynaptic responses were analyzed off-line, using an analysis software (pClampfit, Molecular Devices), which allowed visual detection of events, computing only those events that exceeded and arbitrary threshold."}, "[1]": {"tested_on": "dentate gyrus of wild-type mice", "assay": "Adult hippocampal neurogenesis (Ki67, DCX immunofluorescence)", "format": "in vivo", "description": "Animals. Two-month-old C57BC6 wild-type mice were treated and handled according to National Institutes of Health guidelines (NIH, […], Md.). The treatments were performed by intraperitoneal (ip) injection of 2.0 mg/kg ANDRO and wild-type control animals were injected only with saline solution as vehicle.\nMice were anesthetized (100 μg ketamine+10 μg xylazine in […] saline/g), and then transcardially perfused with saline, followed by 4% paraformaldehyde (PFA) in 0.1M PBS. The brains were removed and incubated in PBS-4% PFA for 24 h at room temperature, dehydrated in 30% sucrose and kept at 4° C. until analysis.\nAfter dehydration, each mouse brain was sectioned on a cryostate in 12 sets of serial coronal sections of […] thickness (Leica Microsystems, Wetzlar, Germany) and collected in ice-cold-PBS in multiwell dishes.Each set contained 5-7 sections covering the entire length of the hippocampus.\nSections were washed with PBS 3 times for 5 min and then incubated in blocking solution (3% donkey serum, 3% BSA, 0.5% Triton X-100 in PBS) for 4 h. Then, tissues were incubated overnight with primary antibodies at 4° C. Primary antibodies used were: rabbit anti-Ki67 (Abcam), rabbit anti-DCX (Cell Signaling Technology Inc., Beverly, Mass., USA), monoclonal anti-NeuN (Millipore, Billerica, Mass., USA). After washing 3 times with 0.5% Triton X-100 PBS, sections were incubated with Dy Light (Abcam) conjugated secondary antibodies for 2 h at room temperature. […] For quantification, Ki67 positive cells were countedusing a fluorescence microscope (Olympus BX51, Tokyo, Japan). Cells were counted in all sections of one set (see tissue sectioning). Total cells counted in one set were multiplied by the total number of sets to obtain an estimation of the total number of Ki67+ cells in the complete hippocampus. For quantification of the % area covered by DCX, double labeling DCX/NeuN was carried. […] Images shown were analyzed by confocal laser microscopy (Olympus FV 1000) and z-projections were generated with ImageJ software."}, "[2]": {"conditions": "Wt hippocampal slices, 10 μM ANDRO for 1 hr (FIG. 5)"}, "[3]": {"conditions": "2-month-old mice, 2 mg/kg i.p. 3 times per week for 4 weeks"}}, "data": [{"smiles": "C=C1CC[C@@H]2C(C)(CO)C(O)CC[C@@]2(C)C1C/C=C1/C(=O)OCC1O", "note": "(stereo in doubt) [ANDRO, 3-(2-(Decahydro-6-hydroxy-5-(hydroxymethyl)-5,8a-dimethyl-2-methylenenaphthyl)ethylidene)dihydro-4-hydroxyfuran-2(3H)-one]", "values": [{"measurement": "FOPflash reporter activity", "setting": "HEK293T cells; 10 μM, 24 h", "value": "not in the FOPflash"}, {"measurement": "TOPflash reporter activity", "setting": "HEK293T cells; 10 μM, 24 h", "value": "significant increase in the TOPflash"}, {"measurement": "increase of luciferase reporter over control", "setting": "HEK293T cells; HEK293T, TOPflash", "value": 4, "unit": "fold"}, {"measurement": "levels of β-catenin", "setting": "GSK-3β; Wt hippocampal slices incubated with ANDRO", "value": "increase in the levels of β-catenin"}, {"measurement": "active form of GSK-3β (Tyr-216 phosphorylation)", "setting": "GSK-3β; [2]", "value": "reduction of the active form (Tyr-216)"}, {"measurement": "inactive form of GSK-3β (Ser-9 phosphorylation)", "setting": "GSK-3β; [2]", "value": "increase in the levels of the inactive form of GSK-3P (Ser-9)"}, {"measurement": "percentage of the granular cell layer covered by DCX staining", "setting": "[1]; [3]", "value": "significantly increased"}, {"measurement": "total number of Ki67+ cells in the SGZ", "setting": "[1]; [3]", "value": "significantly increased the total number of Ki67^+ cells"}, {"measurement": "morphology of DCX+ cells", "setting": "[1]; compared to control mice", "value": "more complex morphology"}]}]}
